Consider 21 compounds from PubChem BioAssay (NCI).

Test systems include A549 NSCLC; ACHN renal; HCT-116 colon; MDA-N; PC-3 prostate; RPMI-8226 leukemia; SW-620 colon; A498 renal; NCI-H226 lung; SK-OV-3 ovarian; U251 CNS; MDA-MB-231 breast.
What all share (assay): growth of human tumour cells (NCI), 48 h

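Five concentrations, 48 hours, 96-well plates. GI50: concentration for 50% inhibition of growth. TGI: total growth inhibition.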

Take `CCC1C(c2cccc(OC)c2O)c2cc3c(cc2OC1N1CCCC1)OCO3` (stereo not drawn): the TGI was found to be 54.7 µM in the assay with A549 NSCLC; 84.3 µM in the assay on ACHN renal; 21.2 µM in the assay on HCT-116 colon; 19.7 µM in the assay with MDA-N; 89.2 µM in the assay on PC-3 prostate; 34 µM with RPMI-8226 leukemia. The same compound returned a TGI in the assay with SW-620 colon of 58.8 µM.

As to `CCOc1ccc(/C=C(\Cl)c2ccc(OC)c(OC)c2)cc1`, the TGI was > 100 µM with A498 renal; > 100 µM in the assay with A549 NSCLC; > 100 µM in the assay with ACHN renal; > 100 µM in the assay on HCT-116 colon; 74.8 µM in the assay on NCI-H226 lung; > 100 µM in the assay on RPMI-8226 leukemia. The TGI with SK-OV-3 ovarian, in the assay with SW-620 colon and with U251 CNS was > 100 µM each time.

Turning to `O=C(CC/C=C(/CS(=O)(=O)c1ccccc1)S(=O)(=O)c1ccccc1)c1ccccc1`, the TGI in the assay on A498 renal, in the assay on A549 NSCLC, in the assay with ACHN renal, in the assay on HCT-116 colon, with NCI-H226 lung and in the assay with RPMI-8226 leukemia was > 100 µM throughout. The TGI in the assay with SK-OV-3 ovarian, in the assay on SW-620 colon and in the assay with U251 CNS was > 100 µM throughout.

In the case of `COC(=O)C1=C(C)NC2(O)C=CC(=O)C3C(=O)N(c4ccccc4)C(=O)C132` (stereo not drawn), the TGI in the assay on A498 renal, in the assay on A549 NSCLC, in the assay with ACHN renal, with HCT-116 colon, in the assay with MDA-MB-231 breast and in the assay on NCI-H226 lung was > 100 µM each time. The TGI in the assay on PC-3 prostate, with RPMI-8226 leukemia, in the assay with SK-OV-3 ovarian, with SW-620 colon and in the assay on U251 CNS was > 100 µM throughout.

Regarding `COc1cc2c(c(OC)c1OC)-c1ccc(SC)c(=O)cc1[C@@H](OC(C)=O)CC2`, the TGI in the assay on A549 NSCLC was > 100 µM; in the assay on ACHN renal it was > 100 µM; with HCT-116 colon, > 100 µM; in the assay on MDA-MB-231 breast it was > 100 µM; in the assay with PC-3 prostate, > 100 µM; in the assay on RPMI-8226 leukemia it was > 59.9 µM. In addition, the TGI in the assay on SW-620 colon and in the assay on U251 CNS was > 100 µM in each case.

Consider `O=C(O)CCCCCOc1cccnc1/C=N/NC1=NCCN1`, for which the TGI in the assay on A498 renal, in the assay on A549 NSCLC, with ACHN renal, with HCT-116 colon, in the assay with NCI-H226 lung and in the assay with RPMI-8226 leukemia was > 100 µM throughout. In addition, the TGI with SK-OV-3 ovarian, with SW-620 colon and in the assay on U251 CNS was > 100 µM each time.

`O=C1O/C(=C(\Br)c2cccc3ccccc23)c2ccccc21`: the TGI in the assay on A498 renal was 34.6 µM; with A549 NSCLC, 35.9 µM; with ACHN renal it was > 55.1 µM; with HCT-116 colon, > 61.9 µM; in the assay with NCI-H226 lung it was > 55.7 µM; in the assay on RPMI-8226 leukemia, 71.4 µM. In addition, the TGI is > 55.8 µM with SK-OV-3 ovarian, > 58.3 µM in the assay on SW-620 colon and > 100 µM in the assay on U251 CNS.

Take `FC(F)(F)c1ccccc1N1CCN(c2nc(-c3cccs3)nc3ccc(Br)cc23)CC1`: the TGI with A498 renal is > 100 µM; in the assay with A549 NSCLC it was > 100 µM; with ACHN renal it was > 100 µM; in the assay with HCT-116 colon, > 100 µM; in the assay with MDA-MB-231 breast it was 74 µM; in the assay on NCI-H226 lung it was > 100 µM. The TGI in the assay on PC-3 prostate is 49.5 µM; in the assay with RPMI-8226 leukemia, 34.5 µM; in the assay on SK-OV-3 ovarian, > 100 µM; in the assay on SW-620 colon, > 100 µM; with U251 CNS, > 100 µM.

As to `CC(=O)[C@@H]1CCC=C2CC[C@]3(C)[C@@H](CC[C@@H]4[C@@]5(C)CCCNC(C)(C)[C@@H]5CC[C@]43C)[C@H]21`, the GI50 is 2.03 µM in the assay on A498 renal; 2.02 µM in the assay with A549 NSCLC; 1.81 µM in the assay on MDA-MB-231 breast; 1.65 µM with PC-3 prostate; 1.81 µM in the assay on SK-OV-3 ovarian; 1.76 µM with U251 CNS. Also, the TGI with A498 renal is 3.79 µM; in the assay with A549 NSCLC it was 3.73 µM; in the assay with MDA-MB-231 breast, 3.35 µM; in the assay on PC-3 prostate, 3.06 µM; in the assay on SK-OV-3 ovarian, 3.37 µM; in the assay with U251 CNS, 3.27 µM.

Turning to `Cc1c2c(cc3c1[nH]c1ccccc13)C=NCC2`, the TGI in the assay with A498 renal came out at 40.3 µM; with A549 NSCLC, 61.6 µM; with HCT-116 colon, 14.6 µM; in the assay on NCI-H226 lung it was 50.2 µM; in the assay with RPMI-8226 leukemia, 51.6 µM; in the assay on SK-OV-3 ovarian it was 97.2 µM. The TGI in the assay with SW-620 colon was 27.6 µM; in the assay with U251 CNS, 47.3 µM.

For `C=C1C(=O)OC2(C)C3CCC(C3)C12` (stereo not drawn), the TGI in the assay with A549 NSCLC, in the assay with ACHN renal, in the assay on HCT-116 colon, in the assay on NCI-H226 lung, in the assay on RPMI-8226 leukemia and in the assay on SK-OV-3 ovarian was > 100 µM in each case. Further, the TGI in the assay on SW-620 colon and in the assay with U251 CNS was > 100 µM each time.

Turning to `Cc1ccnc2[nH]c(-c3cccc(Cl)c3)cc(=O)c12`, the TGI is > 100 µM in the assay with A498 renal; > 100 µM in the assay on A549 NSCLC; > 100 µM in the assay on ACHN renal; 0.0861 µM with MDA-MB-231 breast; > 100 µM in the assay on NCI-H226 lung; > 100 µM in the assay with PC-3 prostate. In addition, the TGI in the assay on SK-OV-3 ovarian and in the assay with SW-620 colon was > 100 µM each time.

`CCCCCCCCCCCCCCCCSCC(COC)COP(=O)([O-])OCC[N+](C)(C)C` (stereo not drawn): the TGI was found to be 19.1 µM in the assay with A498 renal; 20.5 µM in the assay with A549 NSCLC; 18.7 µM in the assay on HCT-116 colon; 9.24 µM in the assay on NCI-H226 lung; 8.48 µM in the assay on RPMI-8226 leukemia; 28.6 µM in the assay on SK-OV-3 ovarian. The TGI in the assay on SW-620 colon stood at 17.7 µM; with U251 CNS, 4.37 µM.

For the compound `NCCCn1c2ccccc2c2c3c(c4c(c21)CCC(O)CC4)C(=O)NC3=O` (stereo not drawn), the TGI in the assay on A498 renal was determined as 22.8 µM; in the assay on A549 NSCLC it was 21.6 µM; in the assay on ACHN renal, 12.1 µM; in the assay on HCT-116 colon it was 28.4 µM; in the assay on MDA-MB-231 breast, 14.4 µM; with NCI-H226 lung it was 13.6 µM. For the same compound, the TGI is 16.2 µM with PC-3 prostate, 14.6 µM in the assay on RPMI-8226 leukemia, 5.19 µM with SW-620 colon and 13.1 µM with U251 CNS.

For the compound `CCN(CC)CCCOC(=O)/C=C/c1c(C)[nH]c(=O)[nH]c1=O`, the TGI was > 412 µM in the assay on A498 renal; > 625 µM in the assay with A549 NSCLC; > 625 µM with HCT-116 colon; > 625 µM with NCI-H226 lung; > 625 µM in the assay on RPMI-8226 leukemia; > 625 µM in the assay on SK-OV-3 ovarian. In addition, the TGI in the assay with SW-620 colon and with U251 CNS was > 625 µM in each case.

Consider `COc1ccc(N2C(=Nc3ccccc3)SC(=N/S(=O)(=O)c3ccccc3)/C2=N\S(=O)(=O)c2ccccc2)cc1`, for which the TGI in the assay with A498 renal came out at 52.4 µM; in the assay on A549 NSCLC, 46.5 µM; with ACHN renal, 61.1 µM; with HCT-116 colon, 28.2 µM; in the assay on MDA-MB-231 breast it was 43.5 µM; in the assay with NCI-H226 lung, 56.8 µM. Further, the TGI was 42.3 µM in the assay with PC-3 prostate, 50.8 µM in the assay on RPMI-8226 leukemia, > 100 µM in the assay on SW-620 colon and 35.4 µM with U251 CNS.

For `Cc1cc(O)c2c(c1O)C(=O)C13C(=C2O)C(=O)C2C(O)C1C1C(O)C3C(=O)C3=C(O)c4c(O)cc(C)c(O)c4C(=O)C321` (stereo not drawn), the TGI is 0.253 µM with A498 renal; 1.08 µM with A549 NSCLC; 0.168 µM in the assay with HCT-116 colon; 0.879 µM in the assay with NCI-H226 lung; < 0.0312 µM in the assay with RPMI-8226 leukemia; 0.319 µM in the assay on SK-OV-3 ovarian. Also, the values for the TGI in the assay with SW-620 colon and with U251 CNS were 0.313 µM and 0.188 µM, respectively.

Regarding `Cc1sc2nc(-c3cc([N+](=O)[O-])c(Cl)cc3Cl)c(/C=N/N=C(N)N)n2c1C`, the TGI in the assay with A498 renal was 38.6 µM; in the assay on A549 NSCLC, > 100 µM; with ACHN renal, 39.2 µM; with HCT-116 colon, > 100 µM; in the assay on MDA-MB-231 breast it was 34.6 µM; in the assay with NCI-H226 lung, 75.2 µM. The TGI in the assay on PC-3 prostate is 36.2 µM; in the assay with RPMI-8226 leukemia it was 54 µM; with SW-620 colon, 69.3 µM; in the assay on U251 CNS it was > 100 µM.

As for `C=C1C[C@@H](O)C[C@@]2(C)C[C@@H]3OC(=O)C(=C)[C@@H]3C[C@H]12`, the TGI in the assay on A498 renal was 36.8 µM; in the assay with A549 NSCLC, 81 µM; in the assay on HCT-116 colon it was 11.9 µM; with NCI-H226 lung, 37.7 µM; with RPMI-8226 leukemia it was 34.5 µM; in the assay with SK-OV-3 ovarian, > 81.9 µM. Further, the figures for the TGI in the assay with SW-620 colon and in the assay with U251 CNS were 18.1 µM and 39.9 µM, respectively.

With `O=C(Nc1nc2c(=O)[nH]cnc2s1)c1ccccc1`, the TGI with A498 renal, in the assay with A549 NSCLC, in the assay with ACHN renal, in the assay on HCT-116 colon, in the assay with NCI-H226 lung and in the assay with PC-3 prostate was > 100 µM each time. Besides, the TGI with SK-OV-3 ovarian, with SW-620 colon and with U251 CNS was > 100 µM in each case.

`CC(=O)OCC1OC(n2cc(F)c(=O)[nH]c2=O)C(N)C(OC(C)=O)C1OC(C)=O` (stereo not drawn): the TGI with A498 renal, in the assay with A549 NSCLC, in the assay with HCT-116 colon, in the assay on NCI-H226 lung, in the assay with RPMI-8226 leukemia and with SK-OV-3 ovarian was > 100 µM in each case. The TGI in the assay with SW-620 colon and in the assay on U251 CNS was > 100 µM each time.
